We go through 19 compounds from US20240132521A1, “COMPOUNDS AND METHODS FOR MODULATING HER2” (Iambic Therapeutics, Inc., priority 2022, published 2024).

What all share (assay type): cell-based
One experiment concerns the target BaF3_HER2WT cells (Homo sapiens, UniProt P04626). The experiment can be described thus: Cell growth inhibition assay (CellTiterGlo), BaF3_HER2WT.
A further experiment concerns the target BaF3_HER2YVMA cells (Homo sapiens, UniProt P04626, DUP772-775, cells depend on it). The experiment in a line: Cell growth inhibition assay (CellTiterGlo), BaF3_HER2YVMA.
The target in a further experiment is BaF3_EGFRWT cells (Homo sapiens, UniProt P00533). The experiment in a line: Cell growth inhibition assay (CellTiterGlo), BaF3_EGFRWT.
Where [1] appears, read: cell growth inhibition, 3 days treatment, read-out: HER2 WT IC50.
Setting [2] is: cell growth inhibition, 3 days treatment, read-out: HER2 - YVMA IC50.
The mark [3] stands for this setting: cell growth inhibition, 80 ng/mL EGF, 3 days treatment, read-out: EGFR WT IC50.
[4] abbreviates: 3-day treatment, CellTiterGlo, read-out: Cell growth inhibition activity, HER2 WT.
Setting [5] is: 3-day treatment, CellTiterGlo, read-out: Cell growth inhibition activity, HER2 - YVMA.
Where [6] appears, read: 3-day treatment, CellTiterGlo, read-out: Cell growth inhibition activity, EGFR WT.

Like-named read-outs stand apart in the source and are kept apart here.

BaF3_HER2WT cells, sequence (P04626 whole entry, change not shown): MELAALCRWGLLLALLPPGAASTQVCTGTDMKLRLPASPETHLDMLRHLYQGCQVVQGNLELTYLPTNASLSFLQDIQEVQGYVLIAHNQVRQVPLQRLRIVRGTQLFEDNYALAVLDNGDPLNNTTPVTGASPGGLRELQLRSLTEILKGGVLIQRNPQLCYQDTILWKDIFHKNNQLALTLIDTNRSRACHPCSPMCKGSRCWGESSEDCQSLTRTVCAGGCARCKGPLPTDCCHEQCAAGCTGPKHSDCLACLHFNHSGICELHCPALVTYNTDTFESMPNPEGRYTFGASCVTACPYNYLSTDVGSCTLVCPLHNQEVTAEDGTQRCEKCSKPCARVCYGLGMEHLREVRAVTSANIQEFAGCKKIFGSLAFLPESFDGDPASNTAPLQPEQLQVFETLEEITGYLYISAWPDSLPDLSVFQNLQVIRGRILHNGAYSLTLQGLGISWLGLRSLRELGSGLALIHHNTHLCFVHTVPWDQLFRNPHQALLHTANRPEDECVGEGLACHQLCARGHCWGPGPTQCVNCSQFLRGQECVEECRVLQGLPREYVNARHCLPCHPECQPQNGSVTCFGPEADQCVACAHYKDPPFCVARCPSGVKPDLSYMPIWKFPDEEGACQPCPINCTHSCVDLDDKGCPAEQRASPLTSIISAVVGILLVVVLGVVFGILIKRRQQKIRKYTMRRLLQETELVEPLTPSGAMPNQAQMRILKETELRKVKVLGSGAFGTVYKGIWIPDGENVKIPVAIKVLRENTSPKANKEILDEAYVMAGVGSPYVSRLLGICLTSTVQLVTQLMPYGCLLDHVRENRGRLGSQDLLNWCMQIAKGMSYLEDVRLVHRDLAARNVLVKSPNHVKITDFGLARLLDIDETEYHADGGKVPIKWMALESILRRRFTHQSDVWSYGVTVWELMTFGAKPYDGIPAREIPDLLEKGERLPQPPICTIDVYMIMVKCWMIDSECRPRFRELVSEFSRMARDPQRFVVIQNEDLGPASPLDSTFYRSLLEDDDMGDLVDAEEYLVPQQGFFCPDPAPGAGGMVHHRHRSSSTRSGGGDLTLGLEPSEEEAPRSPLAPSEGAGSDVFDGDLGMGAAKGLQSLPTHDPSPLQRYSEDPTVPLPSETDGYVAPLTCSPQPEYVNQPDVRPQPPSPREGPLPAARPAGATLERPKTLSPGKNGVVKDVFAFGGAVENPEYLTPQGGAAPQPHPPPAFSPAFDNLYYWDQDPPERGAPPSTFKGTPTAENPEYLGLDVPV
BaF3_HER2YVMA cells, sequence (P04626 with tags, fused parts or gaps DUP772-775): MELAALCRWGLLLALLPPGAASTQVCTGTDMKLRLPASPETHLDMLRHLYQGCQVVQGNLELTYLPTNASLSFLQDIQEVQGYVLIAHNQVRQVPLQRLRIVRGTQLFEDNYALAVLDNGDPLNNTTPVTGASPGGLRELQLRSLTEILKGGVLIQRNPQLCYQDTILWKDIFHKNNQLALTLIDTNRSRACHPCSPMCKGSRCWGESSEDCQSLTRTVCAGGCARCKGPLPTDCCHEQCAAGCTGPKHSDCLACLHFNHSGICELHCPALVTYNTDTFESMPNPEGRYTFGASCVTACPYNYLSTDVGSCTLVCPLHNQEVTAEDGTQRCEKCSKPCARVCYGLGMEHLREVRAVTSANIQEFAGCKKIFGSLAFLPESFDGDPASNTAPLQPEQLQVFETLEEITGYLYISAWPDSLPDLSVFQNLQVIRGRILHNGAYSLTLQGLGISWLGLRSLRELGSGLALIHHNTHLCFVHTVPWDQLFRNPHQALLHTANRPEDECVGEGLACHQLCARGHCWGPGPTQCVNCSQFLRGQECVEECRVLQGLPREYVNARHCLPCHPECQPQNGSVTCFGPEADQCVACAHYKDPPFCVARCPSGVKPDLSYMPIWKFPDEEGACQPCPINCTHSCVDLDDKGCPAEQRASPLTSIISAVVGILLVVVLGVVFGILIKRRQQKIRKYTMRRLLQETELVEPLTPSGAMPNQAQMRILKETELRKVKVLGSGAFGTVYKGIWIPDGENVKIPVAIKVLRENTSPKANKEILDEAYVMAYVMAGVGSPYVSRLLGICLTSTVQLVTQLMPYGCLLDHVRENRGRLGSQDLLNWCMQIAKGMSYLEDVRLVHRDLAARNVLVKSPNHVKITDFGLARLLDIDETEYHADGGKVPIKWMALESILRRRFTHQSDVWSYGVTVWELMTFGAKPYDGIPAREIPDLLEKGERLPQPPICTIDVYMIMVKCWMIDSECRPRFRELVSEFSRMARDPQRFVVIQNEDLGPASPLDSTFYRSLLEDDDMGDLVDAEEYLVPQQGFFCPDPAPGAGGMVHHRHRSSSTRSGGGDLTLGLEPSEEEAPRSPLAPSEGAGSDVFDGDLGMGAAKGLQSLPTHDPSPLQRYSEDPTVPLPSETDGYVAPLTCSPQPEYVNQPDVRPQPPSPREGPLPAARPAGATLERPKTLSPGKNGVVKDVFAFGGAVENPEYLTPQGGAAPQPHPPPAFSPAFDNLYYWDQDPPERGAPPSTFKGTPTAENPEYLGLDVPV
BaF3_EGFRWT cells, sequence (P00533 whole entry, change not shown): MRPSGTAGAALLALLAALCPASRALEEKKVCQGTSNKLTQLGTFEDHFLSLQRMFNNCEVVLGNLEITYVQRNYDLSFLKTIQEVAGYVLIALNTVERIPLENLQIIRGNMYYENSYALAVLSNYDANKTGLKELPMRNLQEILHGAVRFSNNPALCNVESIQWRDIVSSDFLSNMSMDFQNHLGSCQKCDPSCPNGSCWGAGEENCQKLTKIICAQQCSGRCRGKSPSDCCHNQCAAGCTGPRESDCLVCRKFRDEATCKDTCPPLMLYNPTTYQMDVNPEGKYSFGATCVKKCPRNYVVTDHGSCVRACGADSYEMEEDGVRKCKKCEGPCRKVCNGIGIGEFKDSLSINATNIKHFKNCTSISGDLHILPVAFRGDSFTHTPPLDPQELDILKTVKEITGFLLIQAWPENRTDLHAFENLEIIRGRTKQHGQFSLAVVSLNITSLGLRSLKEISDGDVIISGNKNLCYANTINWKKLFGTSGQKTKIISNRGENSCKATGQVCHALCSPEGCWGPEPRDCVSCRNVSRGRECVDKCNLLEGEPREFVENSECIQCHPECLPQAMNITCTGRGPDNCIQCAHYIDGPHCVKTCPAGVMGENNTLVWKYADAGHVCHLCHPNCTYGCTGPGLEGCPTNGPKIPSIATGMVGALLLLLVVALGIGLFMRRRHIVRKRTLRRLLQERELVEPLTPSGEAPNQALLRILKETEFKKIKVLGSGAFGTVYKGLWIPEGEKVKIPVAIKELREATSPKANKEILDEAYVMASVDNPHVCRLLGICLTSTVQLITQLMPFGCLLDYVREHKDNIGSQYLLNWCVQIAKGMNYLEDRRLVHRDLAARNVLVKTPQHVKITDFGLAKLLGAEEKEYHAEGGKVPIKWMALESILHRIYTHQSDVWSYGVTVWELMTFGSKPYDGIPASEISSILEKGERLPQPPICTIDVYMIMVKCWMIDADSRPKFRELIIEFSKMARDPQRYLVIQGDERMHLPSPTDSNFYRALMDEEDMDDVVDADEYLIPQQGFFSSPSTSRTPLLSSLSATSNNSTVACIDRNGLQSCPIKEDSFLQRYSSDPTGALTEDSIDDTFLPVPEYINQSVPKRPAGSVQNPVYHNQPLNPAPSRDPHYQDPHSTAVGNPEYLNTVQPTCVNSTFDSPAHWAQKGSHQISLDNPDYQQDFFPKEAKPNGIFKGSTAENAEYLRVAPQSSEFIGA

For the compound `C=C(CN(C)C)C(=O)N1CC2CCC1CC2c1ccn2ncnc(Nc3ccc(Oc4ccn5ncnc5c4)c(C)c3)c12` (single isomer, unassigned) [Examples 135 and 136, second eluting isomer, 1-(5-(4-((4-([1,2,4]triazolo[1,5-a]pyridin-7-yloxy)-3-methylphenyl)amino)pyrrolo[2,1-f][1,2,4]triazin-5-yl)-2-azabicyclo[2.2.2]octan-2-yl)-2-((dimethylamino)methyl)prop-2-en-1-one], the GI50 at BaF3_HER2WT cells (setting [1]) was below 200 nM; on BaF3_HER2YVMA cells (setting [2]), 200 to 500 nM; at BaF3_EGFRWT cells (setting [3]) it was below 200 nM.

As for `Cc1cc(Nc2ncnn3ccc(C4CC5CCC4CN5C(=O)/C=C/CN(C)C)c23)ccc1Oc1ccn2ncnc2c1` (single isomer, unassigned) [Examples 137 and 138, second eluting isomer, (E)-1-(5-(4-((4-([1,2,4]triazolo[1,5-a]pyridin-7-yloxy)-3-methylphenyl)amino)pyrrolo[2,1-f][1,2,4]triazin-5-yl)-2-azabicyclo[2.2.2]octan-2-yl)-4-(dimethylamino)but-2-en-1-one], the GI50 at BaF3_HER2WT cells (setting [1]) fell in the range of 500 to 1500 nM; at BaF3_HER2YVMA cells (setting [2]) it was 1500 to 5000 nM; at BaF3_EGFRWT cells (setting [3]), 1500 to 5000 nM.

With `C=CC(=O)N1CC2CCC1CC2c1ccn2ncnc(Nc3ccc(Oc4ccn5ncnc5c4)c(C)c3)c12` (single isomer, unassigned) [Examples 139 and 140, first eluting isomer, 1-(5-(4-((4-([1,2,4]triazolo[1,5-a]pyridin-7-yloxy)-3-methylphenyl)amino)pyrrolo[2,1-f][1,2,4]triazin-5-yl)-2-azabicyclo[2.2.2]octan-2-yl)prop-2-en-1-one], the GI50 on BaF3_HER2WT cells (setting [1]) was below 200 nM; at BaF3_HER2YVMA cells (setting [2]), below 200 nM; at BaF3_EGFRWT cells (setting [3]) it was 1500 to 5000 nM.

Regarding `C=CC(=O)N1CC2CCC1CC2c1ccn2ncnc(Nc3ccc(Oc4ccn5ncnc5c4)c(C)c3)c12` (single isomer, unassigned) [Examples 139 and 140, second eluting isomer, 1-(5-(4-((4-([1,2,4]triazolo[1,5-a]pyridin-7-yloxy)-3-methylphenyl)amino)pyrrolo[2,1-f][1,2,4]triazin-5-yl)-2-azabicyclo[2.2.2]octan-2-yl)prop-2-en-1-one], the figures for the GI50 at BaF3_HER2WT cells (setting [1]), at BaF3_HER2YVMA cells (setting [2]) and on BaF3_EGFRWT cells (setting [3]) were 500 to 1500 nM, 1500 to 5000 nM and 1500 to 5000 nM, respectively.

In the case of `C=C(CN(C)C)C(=O)N1CCCC(c2ccn3ncnc(Nc4ccc(Oc5ccn6ncnc6c5)c(C)c4)c23)CC1` (single isomer, unassigned) [Examples 143 and 144, first eluting isomer, 1-(4-(4-((4-([1,2,4]triazolo[1,5-a]pyridin-7-yloxy)-3-methylphenyl)amino)pyrrolo[2,1-f][1,2,4]triazin-5-yl)azepan-1-yl)-2-((dimethylamino)methyl)prop-2-en-1-one], the GI50 on BaF3_HER2WT cells (setting [1]) was below 200 nM; on BaF3_HER2YVMA cells (setting [2]), 500 to 1500 nM; on BaF3_EGFRWT cells (setting [3]) it was 1500 to 5000 nM.

`C=C(CN(C)C)C(=O)N1CCCC(c2ccn3ncnc(Nc4ccc(Oc5ccn6ncnc6c5)c(C)c4)c23)CC1` (single isomer, unassigned) [Examples 143 and 144, second eluting isomer, 1-(4-(4-((4-([1,2,4]triazolo[1,5-a]pyridin-7-yloxy)-3-methylphenyl)amino)pyrrolo[2,1-f][1,2,4]triazin-5-yl)azepan-1-yl)-2-((dimethylamino)methyl)prop-2-en-1-one]: the GI50 at BaF3_HER2WT cells (setting [1]) was below 200 nM; at BaF3_HER2YVMA cells (setting [2]), below 200 nM; at BaF3_EGFRWT cells (setting [3]), 1500 to 5000 nM.

For `Cc1cc(Nc2ncnn3ccc(C4CCCN(C(=O)C(F)Cl)CC4)c23)ccc1Oc1ccn2ncnc2c1` (single isomer, unassigned) [Examples 145, 146, 147 and 148, first eluting isomer, 1-(4-(4-((4-([1,2,4]triazolo[1,5-a]pyridin-7-yloxy)-3-methylphenyl)amino)pyrrolo[2,1-f][1,2,4]triazin-5-yl)azepan-1-yl)-2-chloro-2-fluoroethan-1-one], the GI50 on BaF3_HER2WT cells (setting [1]) is below 200 nM; at BaF3_HER2YVMA cells (setting [2]), 200 to 500 nM; at BaF3_EGFRWT cells (setting [3]), 1500 to 5000 nM.

For the compound `Cc1cc(Nc2ncnn3ccc([C@@H]4CCCN(C(=O)[C@H](F)Cl)CC4)c23)ccc1Oc1ccn2ncnc2c1` (single isomer, unassigned) [Examples 145, 146, 147 and 148, fourth eluting isomer], the GI50 at BaF3_HER2WT cells (setting [1]) was 200 to 500 nM; on BaF3_HER2YVMA cells (setting [2]) it was 500 to 1500 nM; on BaF3_EGFRWT cells (setting [3]), 1500 to 5000 nM.

For the compound `Cc1cc(Nc2ncnn3ccc(C4CCCN(C(=O)C(F)Cl)CC4)c23)ccc1Oc1ccn2ncnc2c1` (single isomer, unassigned) [Examples 145, 146, 147 and 148, second eluting isomer, 1-(4-(4-((4-([1,2,4]triazolo[1,5-a]pyridin-7-yloxy)-3-methylphenyl)amino)pyrrolo[2,1-f][1,2,4]triazin-5-yl)azepan-1-yl)-2-chloro-2-fluoroethan-1-one], the GI50 at BaF3_HER2WT cells (setting [1]) was below 200 nM; at BaF3_HER2YVMA cells (setting [2]) it was below 200 nM; on BaF3_EGFRWT cells (setting [3]), 500 to 1500 nM.

`Cc1cc(Nc2ncnn3ccc(C4CCCN(C(=O)C(F)Cl)CC4)c23)ccc1Oc1ccn2ncnc2c1` (single isomer, unassigned) [Examples 145, 146, 147 and 148, third eluting isomer, 1-(4-(4-((4-([1,2,4]triazolo[1,5-a]pyridin-7-yloxy)-3-methylphenyl)amino)pyrrolo[2,1-f][1,2,4]triazin-5-yl)azepan-1-yl)-2-chloro-2-fluoroethan-1-one]: the GI50 on BaF3_HER2WT cells (setting [1]) lay in the range of 200 to 500 nM; at BaF3_HER2YVMA cells (setting [2]), 500 to 1500 nM; at BaF3_EGFRWT cells (setting [3]), 1500 to 5000 nM.

Regarding `Cc1cc(Nc2ncnn3ccc(C4CN(C(=O)/C=C/C5CCCN5C)C4)c23)ccc1Oc1ccn2ncnc2c1` (single isomer, unassigned) [Examples 171 and 172, second eluting isomer, (E)-1-(3-(4-((4-([1,2,4]triazolo[1,5-a]pyridin-7-yloxy)-3-methylphenyl)amino)pyrrolo[2,1-f][1,2,4]triazin-5-yl)azetidin-1-yl)-3-(1-methylpyrrolidin-2-yl)prop-2-en-1-one], the results for the GI50 on BaF3_HER2WT cells (setting [1]), on BaF3_HER2YVMA cells (setting [2]) and at BaF3_EGFRWT cells (setting [3]) were below 200 nM, below 200 nM and 1500 to 5000 nM, respectively.

In the case of `Cc1cc(Nc2ncnn3ccc(C4CCN(C(=O)[C@H](F)Cl)CC4)c23)ccc1Oc1ccn2ncnc2c1` (single isomer, unassigned) [Examples 173 and 174, first eluting isomer], the GI50 at BaF3_HER2WT cells (setting [1]) fell in the range of 200 to 500 nM; at BaF3_HER2YVMA cells (setting [2]) it was 1500 to 5000 nM; at BaF3_EGFRWT cells (setting [3]) it was 1500 to 5000 nM.

Regarding `Cc1cc(Nc2ncnn3ccc(C4CC5CCC4CN5C(=O)/C=C/CN(C)C)c23)ccc1Oc1ccn2ncnc2c1` (single isomer, unassigned; first eluting) [Examples 137 and 138, first eluting isomer], the GI50 on BaF3_HER2WT cells (setting [1]) is below 200 nM; at BaF3_HER2YVMA cells (setting [2]), 200 to 500 nM; at BaF3_EGFRWT cells (setting [3]), 1500 to 5000 nM.

Take `Cc1cc(Nc2ncnn3ccc(C4CCN(C(=O)[C@@H](F)Cl)CC4)c23)ccc1Oc1ccn2ncnc2c1` (single isomer, unassigned; second eluting) [Examples 173 and 174, second eluting isomer, (5)-1-(4-(4-((4-([1,2,4]triazolo[1,5-a]pyridin-7-yloxy)-3-methylphenyl)amino)pyrrolo[2,1-f][1,2,4]triazin-5-yl)piperidin-1-yl)-2-chloro-2-fluoroethan-1-one]: the results for the GI50 at BaF3_HER2WT cells (setting [1]), at BaF3_HER2YVMA cells (setting [2]) and at BaF3_EGFRWT cells (setting [3]) were below 200 nM, below 200 nM and 1500 to 5000 nM, respectively.

On to `C=CC(=O)N1CC(c2ccn3ncnc(Nc4ccc(Oc5ccn6ncnc6c5)c(C)c4)c23)C1` [Example 3, 1-(3-(4-((4-([1,2,4]triazolo[1,5-a]pyridin-7-yloxy)-3-methylphenyl)amino)pyrrolo[2,1-f][1,2,4]triazin-5-yl)azetidin-1-yl)prop-2-en-1-one], for which the results for the GI50 at BaF3_HER2WT cells (setting [4]), at BaF3_HER2YVMA cells (setting [5]) and at BaF3_EGFRWT cells (setting [6]) were below 200 nM, below 200 nM and 500 to 1500 nM, respectively.

In the case of `C=CC(=O)N1CCCC(c2ccn3ncnc(Nc4ccc(Oc5ccn6ncnc6c5)c(C)c4)c23)CC1` (stereo not drawn) [Example 9, 1-(4-(4-((4-([1,2,4]triazolo[1,5-a]pyridin-7-yloxy)-3-methylphenyl)amino)pyrrolo[2,1-f][1,2,4]triazin-5-yl)azepan-1-yl)prop-2-en-1-one], the GI50 on BaF3_HER2WT cells (setting [4]) is below 200 nM; on BaF3_HER2YVMA cells (setting [5]), below 200 nM; at BaF3_EGFRWT cells (setting [6]), 200 to 500 nM.

Regarding `C=CC(=O)N1CC2(C1)CN(c1ccn3ncnc(Nc4cnc(Oc5ccn6ncnc6c5)c(Cl)c4)c13)C2` [Example 15, 1-(6-(4-((6-([1,2,4]triazolo[1,5-a]pyridin-7-yloxy)-5-chloropyridin-3-yl)amino)pyrrolo[2,1-f][1,2,4]triazin-5-yl)-2,6-diazaspiro[3.3]heptan-2-yl)prop-2-en-1-one], the GI50 at BaF3_HER2WT cells (setting [4]) was 1500 to 5000 nM; on BaF3_HER2YVMA cells (setting [5]) it was above 5000 nM; at BaF3_EGFRWT cells (setting [6]), 1500 to 5000 nM.

For `C=CC(=O)N1CC2(CC(c3ccn4ncnc(Nc5ccc(Oc6ccn7ncnc7c6)c(C)c5)c34)C2)C1` [Example 17, 1-(6-(4-((4-([1,2,4]triazolo[1,5-a]pyridin-7-yloxy)-3-methylphenyl)amino)pyrrolo[2,1-f][1,2,4]triazin-5-yl)-2-azaspiro[3.3]heptan-2-yl)prop-2-en-1-one], the GI50 on BaF3_HER2WT cells (setting [4]) was below 200 nM; at BaF3_HER2YVMA cells (setting [5]) it was below 200 nM; on BaF3_EGFRWT cells (setting [6]), 1500 to 5000 nM.

For `C=C(C(=O)O)C(=O)N1CCC(c2ccn3ncnc(Nc4ccc(Oc5ccn6ncnc6c5)c(C)c4)c23)CC1` [Example 20, 2-(4-(4-((4-([1,2,4]triazolo[1,5-a]pyridin-7-yloxy)-3-methylphenyl)amino)pyrrolo[2,1-f][1,2,4]triazin-5-yl)piperidine-1-carbonyl)acrylic acid], the GI50 on BaF3_HER2WT cells (setting [4]), on BaF3_HER2YVMA cells (setting [5]) and at BaF3_EGFRWT cells (setting [6]) was 1500 to 5000 nM in each case.
